In patent US20260001886A1, “ENPP1 INHIBITORS I” (RE Ventures I, LLC, priority 2024, published 2026):
pEC50, pKd: −log10 of the molar value.

Key:
human CA-II (CA2) [1] = biological target: T1, human CA-II (CA2) (Homo sapiens (Human), UniProt P00918); test: biochemical
Experimental: (§1) Cytiva Biacore S200, T200 and 3000 machines were used for all SPR experiments. […] For carbonic anhydrases, data were collected at a constant temperature of 25° C. Human CA-I (CA1) or human CA-II (CA2) was captured via standard EDC/NHS protocol on a Biacore CM5 chip using standard protocols in HBS-N buffer (10 mM HEPES (pH 7.4), 150 mM NaCl) at ˜2000 RU. The experiments were run in PBS buffer containing 0.05% Tween 20 and 3% DMSO. All compounds were initially screened at concentrations ranging from 23 nM to 50 µM or 4.6 nM to 10 µM, injecting from the lowest to highest concentrations and adjusting appropriately for each compound for repeat experiments. Scrubber 2 (Biologic software) was used to process and analyse SPR data. […] Data for the inhibitors were referenced to those for a blank surface and blank injections to normalise for non-specific binding and drift. A DMSO calibration was run to remove excluded volume effect of binding responses between reference and target surface.

Human ENPP1 = Human ENPP1 (Homo sapiens (Human), UniProt P22413)
Experimental: ENPP1 catalyses the hydrolysis of ATP into AMP+PPi. AMP production was monitored using Bellbrooks Transcreener AMP/GMP TR-FRET assay kit (Cat No. 3020-10K) according to the manufacturer's instructions. The assay was run with 50 mM Tris pH 7.5, 5 mM MgCl2, 150 mM NaCl, 0.005% Tween20 and distilled H2O. Antibody and tracer were diluted to 2 nM. […] Mouse ENPP1 was run at 15 pM with ATP at 400 nM. AMP produced in the assay by ENPP1 activity competes with a far-red tracer labelled AMP bound to an AMP specific antibody resulting in a decrease in TR-FRET. ENPP1 inhibition reduces AMP production and increases the TR-FRET signal.

human CA-I (CA1) = human CA-I (CA1) (Homo sapiens (Human), UniProt P00915); test: Surface plasmon resonance, carbonic anhydrase I; conditions: 25° C., CM5 chip
Experimental: as §1

human CA-II (CA2) [2] = biological target: T1, human CA-II (CA2); test: Surface plasmon resonance, carbonic anhydrase II; conditions: 25° C., CM5 chip
Experimental: as §1

Sequence of human CA-I (CA1) (P00915 whole entry): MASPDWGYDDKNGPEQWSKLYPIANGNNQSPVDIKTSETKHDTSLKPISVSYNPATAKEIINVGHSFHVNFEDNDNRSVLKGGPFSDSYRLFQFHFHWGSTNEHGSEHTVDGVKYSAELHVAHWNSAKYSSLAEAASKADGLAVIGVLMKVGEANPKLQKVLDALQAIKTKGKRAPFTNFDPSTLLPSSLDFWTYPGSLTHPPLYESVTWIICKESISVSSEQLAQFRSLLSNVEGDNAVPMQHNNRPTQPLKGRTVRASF
Sequence of Human ENPP1 (P22413 whole entry): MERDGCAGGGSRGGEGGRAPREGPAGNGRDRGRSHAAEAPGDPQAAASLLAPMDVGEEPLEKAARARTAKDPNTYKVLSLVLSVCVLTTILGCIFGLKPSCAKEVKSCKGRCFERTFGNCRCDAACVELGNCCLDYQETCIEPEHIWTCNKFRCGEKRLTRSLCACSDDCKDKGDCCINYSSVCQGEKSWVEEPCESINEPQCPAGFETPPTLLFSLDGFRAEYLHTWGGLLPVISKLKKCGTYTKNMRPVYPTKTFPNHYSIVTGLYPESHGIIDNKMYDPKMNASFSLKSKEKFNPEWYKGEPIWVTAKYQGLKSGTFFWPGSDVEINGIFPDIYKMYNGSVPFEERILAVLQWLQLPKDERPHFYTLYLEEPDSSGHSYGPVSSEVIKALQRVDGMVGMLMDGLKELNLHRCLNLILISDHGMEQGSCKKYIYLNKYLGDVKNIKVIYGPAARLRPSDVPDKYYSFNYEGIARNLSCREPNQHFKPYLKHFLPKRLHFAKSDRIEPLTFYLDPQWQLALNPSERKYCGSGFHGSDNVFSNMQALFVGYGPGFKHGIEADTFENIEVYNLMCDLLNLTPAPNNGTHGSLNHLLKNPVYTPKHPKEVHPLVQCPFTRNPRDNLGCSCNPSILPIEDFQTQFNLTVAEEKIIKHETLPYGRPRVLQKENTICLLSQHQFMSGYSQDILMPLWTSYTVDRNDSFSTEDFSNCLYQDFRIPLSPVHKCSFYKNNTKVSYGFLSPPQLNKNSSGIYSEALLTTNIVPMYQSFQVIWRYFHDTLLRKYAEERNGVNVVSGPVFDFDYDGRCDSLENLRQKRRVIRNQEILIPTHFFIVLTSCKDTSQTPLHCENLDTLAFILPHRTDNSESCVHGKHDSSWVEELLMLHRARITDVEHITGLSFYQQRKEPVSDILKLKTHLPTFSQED

Row | pKd (human CA-II (CA2) [1]) | pEC50 (Human ENPP1) | CA1 human SPR pKD (human CA-I (CA1)) | CA2 human SPR pKD (human CA-II (CA2) [2]) | Compound
1 | < 1.00 | – | – | – | CC(C)c1cn(Cc2ccc(S(C)(=N)=O)cc2)c2cc(C3CC3)nn2c1=O (racemic) [3 Rac]
2 | – | 8.20 | – | – | CC(C)c1cn(Cc2ccc(S(C)(=N)=O)c(C(F)(F)F)c2)c2cc(C3CC3)nn2c1=O (stereo not shown) [Compound 20, 2-cyclopropyl-6-isopropyl-4-(4-(S-methylsulfonimidoyl)-3-(trifluoromethyl)benzyl) pyrazolo[1,5-a]pyrimidin-7(4H)-one]
3 | – | – | 3.0 | 4.5 | COc1cccc2c1nn1c(=O)c(C(C)C)cn(C[C@H]3C[C@H]4C[C@@H]3CN4S(N)(=O)=O)c21 [Compound 42, (1S,4S,5S)-5-((3-Isopropyl-7-methoxy-4-oxopyrimido[1,2-b]indazol-1 (4H)-yl)methyl)-2-azabicyclo[2.2.1]heptane-2-sulfonamide]
4 | – | 7.90 | 3.0 | 3.0 | CC(C)c1cn(Cc2c(F)cc(S(C)(=N)=O)cc2F)c2nc(C3CC3)nn2c1=O (stereo not shown) [Compound 26, 2-cyclopropyl-4-(2,6-difluoro-4-(S-methylsulfonimidoyl)benzyl)-6-isopropyl-[1,2,4]triazolo[1,5-a]pyrimidin-7(4H)-one]
5 | – | 8.90 | – | – | Cc1cc([S@@](C)(=N)=O)ccc1Cn1cc(C(C)C)c(=O)n2nc(C3CC3)cc12 (single isomer, unassigned) [Compound 66]
6 | – | 7.50 | – | – | CC(C)c1cn(Cc2ccc3c(c2)CCS3(=N)=O)c2nc(C3CC3)nn2c1=O (stereo not shown) [Compound 48, 2-Cyclopropyl-4-((1-imino-1-oxido-2,3-dihydro-1H-1l4-benzo[b]thiophen-5-yl)methyl)-6-isopropyl-[1,2,4]triazolo[1,5-a]pyrimidin-7(4H)-one]
7 | – | – | 3.0 | 3.0 | CC(C)c1cn(C[C@H]2C[C@H]3C[C@@H]2CN3S(N)(=O)=O)c2c3cccnc3nn2c1=O [Compound 41, (1S,4S,5S)-5-((3-Isopropyl-4-oxopyrido[2′,3′: 3,4]pyrazolo[1,5-a]pyrimidin-1 (4H)-yl)methyl)-2-azabicyclo[2.2.1]heptane-2-sulfonamide]
8 | 4.50 | – | – | – | CNc1nc(S(N)(=O)=O)ccc1Cn1cc(C(C)C)c(=O)n2nc(C3CC3)nc12 [Compound 29, 5-((2-cyclopropyl-6-isopropyl-7-oxo-[1,2,4]triazolo[1,5-a]pyrimidin-4(7H)-yl)methyl)-6-(methylamino)pyridine-2-sulfonamide]
9 | – | 7.80 | – | – | CC(C)c1cn(C[C@H]2C[C@H]3C[C@@H]2CN3S(N)(=O)=O)c2nc(Cl)nn2c1=O [Compound 34, (1S,4S,5S)-5-((2-chloro-6-isopropyl-7-oxo-[1,2,4]triazolo[1,5-a]pyrimidin-4(7H)-yl)methyl)-2-azabicyclo[2.2.1]heptane-2-sulfonamide]
10 | – | 8.10 | – | – | CC(C)c1cn(Cc2ccc(S(=N)(=O)C(C)C)cc2)c2nc(C3CC3)nn2c1=O (stereo not shown) [Compound 64, 2-Cyclopropyl-6-isopropyl-4-(4-(propan-2-ylsulfonimidoyl)benzyl)-[1,2,4]triazolo[1,5-a]pyrimidin-7(4H)-one]
11 | – | – | <1 | 3.0 | CC(C)c1cn(Cc2ccc(S(C)(=N)=O)cc2)c2cc(C3CC3)nn2c1=O (stereo not shown) [Compound 57, 2-Cyclopropyl-6-isopropyl-4-(4-(S-methylsulfonimidoyl)benzyl)pyrazolo[1,5-a]pyrimidin-7(4H)-one]
12 | – | 8.40 | 3.0 | 3.8 | Cc1cc(S(C)(=N)=O)ccc1Cn1cc(C(C)C)c(=O)n2nc(C3CC3)cc12 (stereo not shown) [Compound 61, 2-Cyclopropyl-6-isopropyl-4-(2-methyl-4-(S-methylsulfonimidoyl)benzyl)pyrazolo[1,5-a]pyrimidin-7(4H)-one]
13 | – | 8.40 | 3.0 | 4.8 | CC(C)c1nn2c(=O)c(C(C)C)cn(C[C@H]3C[C@H]4C[C@@H]3CN4S(N)(=O)=O)c2c1F [Compound 43, (1S,4S,5S)-5-((3-Fluoro-2,6-diisopropyl-7-oxopyrazolo[1,5-a]pyrimidin-4(7H)-yl)methyl)-2-azabicyclo[2.2.1]heptane-2-sulfonamide]
14 | – | – | <1 | 3.0 | CC(C)c1cn(Cc2ccc(S(C)(=N)=O)cc2F)c2cc(C3CC3)nn2c1=O (stereo not shown) [Compound 62, 2-Cyclopropyl-4-(2-fluoro-4-(S-methylsulfonimidoyl)benzyl)-6-isopropylpyrazolo[1,5-a]pyrimidin-7(4H)-one]
15 | – | – | 3.0 | 4.9 | Cc1nn2c(=O)c(C(C)C)cn(C[C@H]3C[C@H]4C[C@@H]3CN4S(N)(=O)=O)c2c1Cl [Compound 4, (1S,4S,5S)-5-((3-chloro-6-isopropyl-2-methyl-7-oxopyrazolo[1,5-a]pyrimidin-4(7H)-yl)methyl)-2-azabicyclo[2.2.1]heptane-2-sulfonamide]
16 | < 1.00 | – | – | – | CC(C)c1cn(Cc2ccc([S@](C)(=N)=O)cc2)c2cc(C3CC3)nn2c1=O (single isomer, unassigned) [Compound 3A]
17 | – | 8.20 | – | – | CC(C)c1cn(Cc2ccc([S@@](=N)(=O)C(C)C)cc2)c2nc(C3CC3)nn2c1=O (single isomer, unassigned) [Compound 68]
18 | – | 8.20 | – | – | CC(C)c1cn(Cc2ccc(S(C)(=N)=O)cc2)c2nc(OC3CC3)nn2c1=O (stereo not shown) [Compound 25, 2-cyclopropoxy-6-isopropyl-4-(4-(S-methylsulfonimidoyl)benzyl)-[1,2,4]triazolo[1,5-a]pyrimidin-7(4H)-one]
19 | – | 6.90 | – | – | Cc1nc2n(Cc3ccc4c(c3)CCCS4(=N)=O)cc(C(C)C)c(=O)n2n1 (stereo not shown) [Compound 52, 4-((1-Imino-1-oxido-1/4-thiochroman-6-yl)methyl)-6-isopropyl-2-methyl-[1,2,4]triazolo[1,5-a]pyrimidin-7(4H)-one]
20 | – | 8.10 | – | – | COCc1nc2n(Cc3ccc(S(C)(=N)=O)cc3)cc(C(C)C)c(=O)n2n1 (stereo not shown) [Compound 33, 6-isopropyl-2-(methoxymethyl)-4-(4-(S-methylsulfonimidoyl)benzyl)-[1,2,4]triazolo[1,5-a]pyrimidin-7(4H)-one]
21 | – | 7.50 | – | – | CC(C)c1cn(Cc2ccc(S(=N)(=O)C(F)F)cc2)c2nc(C3CC3)nn2c1=O (single isomer, unassigned) [Compound 50]
22 | – | 8.00 | – | – | CC(C)c1cn(Cc2ccc(S(C)(=N)=O)c(F)c2)c2nc(C3CC3)nn2c1=O (stereo not shown) [Compound 63, 2-Cyclopropyl-4-(3-fluoro-4-(S-methylsulfonimidoyl)benzyl)-6-isopropyl-[1,2,4]triazolo[1,5-a]pyrimidin-7(4H)-one]
23 | – | 8.30 | 3.0 | 4.2 | COc1c(C2CC2)nn2c(=O)c(C(C)C)cn(C[C@H]3C[C@H]4C[C@@H]3CN4S(N)(=O)=O)c12 [Compound 44, (1S,4S,5S)-5-((2-Cyclopropyl-6-isopropyl-3-methoxy-7-oxopyrazolo[1,5-a]pyrimidin-4(7H)-yl)methyl)-2-azabicyclo[2.2.1]heptane-2-sulfonamide]
24 | – | 7.00 | 3.0 | 3.6 | Cc1nc2n(C[C@H]3C[C@H]4C[C@@H]3CN4S(N)(=O)=O)cc(-c3cccc(F)c3)c(=O)n2n1 [Compound 6, (1S,4S,5S)-5-((6-(3-fluorophenyl)-2-methyl-7-oxo-[1,2,4]triazolo[1,5-a]pyrimidin-4(7H)-yl)methyl)-2-azabicyclo[2.2.1]heptane-2-sulfonamide]
25 | – | 8.40 | <1 | 3.0 | Cc1nc2n(C[C@H]3C[C@H]4C[C@@H]3CN4S(N)(=O)=O)cc(-c3ccc(F)cc3)c(=O)n2n1 [Compound 14, (1S,4S,5S)-5-((6-(4-fluorophenyl)-2-methyl-7-oxo-[1,2,4]triazolo[1,5-a]pyrimidin-4(7H)-yl)methyl)-2-azabicyclo[2.2.1]heptane-2-sulfonamide]
26 | < 1.00 | – | – | – | CC(C)c1cn(Cc2ccc([S@@](C)(=N)=O)cc2)c2cc(C3CC3)nn2c1=O (single isomer, unassigned) [Compound 3B]
27 | – | 7.00 | – | – | CC(C)c1cn(Cc2ccc3c(c2)OCCS3(=N)=O)c2nc(C3CC3)nn2c1=O (stereo not shown) [Compound 53, 2-Cyclopropyl-4-((4-imino-4-oxido-3,4-dihydro-2H-4lambda4-benzo[b][1,4]oxathiin-7-yl)methyl)-6-isopropyl-[1,2,4]triazolo[1,5-a]pyrimidin-7(4H)-one]
28 | – | – | <1 | <1 | Cc1cc2n(Cc3ccc([S@](C)(=N)=O)cc3)cc(C(C)C)c(=O)n2n1 (single isomer, unassigned) [Compound 9B]
29 | – | 8.20 | – | – | CC(C)c1cn(C[C@H]2C[C@H]3C[C@@H]2CN3S(N)(=O)=O)c2c(C#N)c(C3CC3)nn2c1=O [Compound 45, (1S,4S,5S)-5-((3-Cyano-2-cyclopropyl-6-isopropyl-7-oxopyrazolo[1,5-a]pyrimidin-4(7H)-yl)methyl)-2-azabicyclo[2.2.1]heptane-2-sulfonamide]

Row | Compound | pKd (human CA-II (CA2) [1]) | pEC50 (Human ENPP1) | CA1 human SPR pKD (human CA-I (CA1)) | CA2 human SPR pKD (human CA-II (CA2) [2])
30 | CC(C)c1cn(Cc2ccc(S(C)(=N)=O)cc2F)c2nc(C3CC3)nn2c1=O (stereo not shown) [Compound 12, 2-cyclopropyl-4-(2-fluoro-4-(S-methylsulfonimidoyl)benzyl)-6-isopropyl-[1,2,4]triazolo[1,5-a]pyrimidin-7(4H)-one] | – | – | <1 | 3.0
31 | CC(C)c1cn(Cc2ccc([S@](C)(=N)=O)cc2F)c2nc(C3CC3)nn2c1=O (single isomer, unassigned) [Compound 69] | – | – | <1 | <1
32 | Cc1nc2n(C[C@H]3C[C@H]4C[C@@H]3CN4S(N)(=O)=O)cc(-c3cccnc3)c(=O)n2n1 [Compound 2, (1S,4S,5S)-5-((2-methyl-7-oxo-6-(pyridin-3-yl)-[1,2,4]triazolo[1,5-a]pyrimidin-4(7H)-yl)methyl)-2-azabicyclo[2.2.1]heptane-2-sulfonamide] | – | 6.60 | – | –
